Measurements taken from paper PMC12376128, “In vitro and In Vivo Drug Metabolism Analysis of BPI-460372 - A Covalent TEAD1/3/4 Inhibitor” (Current Drug Metabolism, 2025).

Legend:
CYP3A4 = test: Metabolic stability in HLMs with or without specific CYP inhibitor (ketoconazole); format: in vitro ADME, human; settings: HLMs 1 mg protein/mL, substrate 1 μM, ketoconazole 20 µM
Description: (§1) Before starting the experiments, the HLMs were thawed gently on ice. Metabolic stability incubations were performed at 37 °C. The incubations contained 100 mM phosphate buffer saline (PBS, pH 7.4), HLMs (1 mg protein·mL^-1), dimethyl sulfoxide (DMSO, blank control) or a selective CYP inhibitor, and BPI-460372 or positive control substrates (final incubation concentration, 1 μM). The incubation process started with the addition of NADPH (1 mM final concentration) after a 5-minute preincubation period. The chemical inhibitors were as follows: a-naphthoflavone (2 µM) for CYP1A2, ticlopidine (20 µM) for 2B6, quercetin (20 µM) for CYP2C8, sulfaphenazole (20 µM) for CYP2C9, ticlopidine (200 µM) for CYP2C19, quinidine (20 µM) for CYP2D6, and ketoconazole (20 µM) for CYP3A [9]. Aliquots were maintained in acetonitrile containing internal standard (IS) at various time points, such as 0 min, 5 min, 10 min, 20 min, 30 min, and 60 min. All incubations were performed in triplicate, and the concentration in the supernatant was determined by liquid chromatography-tandem mass spectrometry (LC-MS/MS).
(§2) The elimination rate constant k (min^-1) was obtained by linear regression from the natural logarithm of the […] of the parent drug and the incubation time. The inhibition rate was calculated using equation 1 [10]: […]

recombinant human CYP3A4 = target: T1, recombinant human CYP3A4 (Homo sapiens, UniProt P08684); test: Metabolic stability in recombinant human CYP isoenzymes; format: in vitro ADME; settings: rCYP3A4, 1 µM
T1 construct: purchased Cypex Ltd. (Dundee, UK)
Description: (§3) To identify the specific isoform that participates in the metabolism of BPI-460372, 1 µM BPI-460372 or positive control substrates were mixed with recombinant human CYP1A2, 2B6, 2C8, 2C9, 2C19, 2D6 or 3A4 (100 pmol P450·mL^-1), and the reaction was started by the addition of NADPH (1 mM final concentration) after 5-minute preincubation at 37°C. Aliquots were maintained in acetonitrile containing IS at different time points at 0 min, 5 min, 10 min, 20 min, 30 min, and 60 min. All incubations were performed in triplicate, and the concentration of the supernatant was determined by LC-MS/MS.
(§4) A substrate depletion approach was employed to determine the intrinsic clearance (CLint (rCYPj)) for each isoform. The contribution of each isoform was estimated using equations 2 and 3. CYPj abundance was evaluated as the abundance (CYPj) of each isoform in HLMs (pmol/mg protein).

CYP2C9 [1] = target: T2, CYP2C9 (Homo sapiens, UniProt P11712); test: as above; format: in vitro ADME; set-up: purchased Cypex Ltd. (Dundee, UK); settings: rCYP2C9, 1 µM
Description: as §3, §4

CYP2C9 [2] = target: T2, CYP2C9; test: Metabolic stability in HLMs with or without specific CYP inhibitor (sulfaphenazole); format: in vitro ADME; set-up: HLMs (1 mg protein·mL^-1); tissue BioIVT; host or cells: pooled human liver microsomes; settings: 1 µM, pH 7.4
Description: as §1, §2

[3] = Metabolite identification in rat plasma, urine, feces and bile; format: in vivo, SD rats; settings: for Relative abundance of MS peak areas, Rat Feces 0-48 h / Relative abundance of MS peak areas, Rat Urine 0-48 h / Relative abundance of MS peak areas, Rat Bile 0-48 h: oral 6 mg/kg BPI-460372, average of male and female pooled samples; for Relative abundance of MS peak areas, Rat Plasma 0-24 h: oral 12 mg/kg BPI-460372, average of male and female pooled samples
Description: (§5) The plasma samples were acquired from SD rats (n=6, 3 female and 3 male) and beagle dogs (n=6, 3 female and 3 male) after administration of 12 mg/kg and 8 mg/kg of BPI-460372, respectively. The rat urine, feces, and bile samples were acquired in SD rats after administration of 6 mg/kg of BPI-460372.
(§6) Equal volume from each rat was pooled together to get 1 male and 1 female 0-24 h plasma samples. An equal percentage by volume of individual urine sample (0-8, 8-24, and 24-48 h) from 3 female and 3 male rats was pooled by time interval across rats, respectively, resulting in two pooled urine samples (1 male and 1 female). An equal percentage by weight of individual feces samples (0-8, 8-24, and 24-48 h) was pooled by time interval across female and male rats, resulting in two pooled fecal samples. An equal percentage by volume of individual bile samples (0-4, 4-8, 8-24, and 24-48 h) was pooled by time interval across female and male rats, resulting in two pooled bile samples. […] Equal volumes from 3 female and 3 male rats were pooled together to get two 0-48 h plasma samples. For blank samples of plasma, urine, and bile, equal volume was pooled across subjects. For a blank sample of feces, equal weight was pooled across rats.
(§7) The pooled plasma, feces, and bile samples were extracted by adding 3-fold volume of acetonitrile, and the mixture was vortexed (1 min) and sonicated (1 min) before centrifugation (7220 g, 5 min). The pooled urine samples were centrifuged (7220 g, 5 min). Then the supernatant was transferred into a clean tube and evaporated to dryness under the nitrogen stream. The residues were redissolved with an appropriate volume of acetonitrile/water (20: 80, v: v). After centrifugation, the redissolved solution was transferred into an HPLC vial for UHPLC-Orbitrap-HRMS (15000 g, 10 min, 4°C).

[4] = Metabolite identification in dog plasma; format: in vivo, beagle dogs; settings: oral 8 mg/kg BPI-460372, average of male and female pooled samples
Description: as §5, §6, §7

[5] = tested on: cysteine S-conjugate β-lyase; test: Effect of cysteine S-conjugate β-lyase inhibitor AOAA on the metabolism of BPI-460372 (rat urine); settings: for Area ratio in rat urine, mean (%CV): 20 mg/kg BPI-460372 + 100 mg/kg AOAA, once daily 21 days, urine 0-48 h on day 21; for Change of area ratio in rat urine on coadministration with AOAA: 20 mg/kg BPI-460372 with versus without 100 mg/kg AOAA
Description: To investigate the effect of cysteine S-conjugate β-lyase on the metabolism of BPI-460372, SD rats were treated with 20 mg/kg BPI-460372 alone (n=3, male) or 20 mg/kg BPI-460372 coadministration with 100 mg/kg cysteine S-conjugate β-lyase inhibitor AOAA (n=3, male), once daily for 21 consecutive days. On day 21, urine samples were collected at 0-8, 8-24 and 24-48 h. The same percentage of urine samples from each rat was taken at these three time intervals and mixed. The samples were analyzed by LC-MS/MS and then semi-quantified using the peak area ratio of analyte versus IS.

monkey hepatocytes = test: Metabolism and metabolite formation in hepatocytes; format: in vitro ADME, cynomolgus monkey; settings: cynomolgus monkey hepatocytes, 10 µM BPI-460372, 4 h incubation
Description: (§8) All the samples were duplicates.

dog hepatocytes = test: Metabolism and metabolite formation in hepatocytes; format: in vitro ADME, beagle dog; settings: beagle dog hepatocytes, 10 µM BPI-460372, 4 h incubation
Description: as §8

rat hepatocytes = test: Metabolism and metabolite formation in hepatocytes; format: in vitro ADME, SD rat; settings: SD rat hepatocytes, 10 µM BPI-460372, 4 h incubation
Description: as §8

mouse hepatocytes = test: Metabolism and metabolite formation in hepatocytes; format: in vitro ADME, ICR mouse; settings: ICR mouse hepatocytes, 10 µM BPI-460372, 4 h incubation
Description: as §8

TEAD proteins = test: Covalent binding to TEAD proteins (in vitro); settings: in vitro studies
TEAD palmitoylation = test: Inhibition of TEAD palmitoylation (in vitro); format: biochemical; settings: in vitro studies
human hepatocytes = test: Metabolism and metabolite formation in hepatocytes; settings: human hepatocytes, 10 µM BPI-460372, 4 h incubation
Description: 10 µM BPI-460372 was incubated in five species (human, cynomolgus monkey, beagle dog, SD rat, and ICR mouse) hepatocytes (1 × 10^6 cells·min^-1) at 37 °C for 4 h. 7-EC, as positive control, was incubated for 0 h and 4 h. For blank control, hepatocytes were inactivated by adding ice-cold acetonitrile, and then the BPI-460372 solution was added. All the samples were duplicates. Incubations were stopped using the same volume of cold acetonitrile. The tube was vortexed, and the duplicate samples were combined. Metabolite profiling and identification of BPI-460372 were conducted by using UHPLC-Orbitrap-HRMS. The samples of 7-EC were analyzed by LC-MS/MS and then semi-quantified using the peak area ratio of analyte versus IS.
For hepatocyte metabolite identification, the different metabolites of BPI-460372 were detected using an ACQUITY UPLC HSS T3 column (1.8 µm, 100 mm × 2.1 mm) and ACQUITY UPLC BEH C18 column (1.7 µm, 100 mm × 2.1 mm) for rat and dog metabolite identification. The mobile phase contained a mixture of 0.1% formic acid in water (A) and 0.1% formic acid in acetonitrile (B). The gradient elution program was as follows: 0.0-1.0 min, 5% B; 1.0-7.0 min, 5%-30% B; 7.0-12.0 min, 30%-80% B; 12.0-16.0 min, 80%-95% B; 16.0-18.0 min, 95% B; 18.0-18.1 min, 95%-5% B. Then, 5% B from 18.1 to 20.0 min was maintained for equilibration. The flow rate was set to 0.5 mL/min, and the column temperature was kept at 40°C. Eluted fractions were monitored by a UV detector at 314 nm.

CYP1A2 = target: T3, CYP1A2 (Homo sapiens, UniProt P05177); test: Metabolic stability in HLMs with or without specific CYP inhibitor (α-naphthoflavone); format: in vitro ADME; set-up: HLMs (1 mg protein·mL^-1); tissue BioIVT; host or cells: pooled human liver microsomes; settings: HLMs 1 mg protein/mL, substrate 1 μM, α-naphthoflavone 2 µM
T3 sequence (P05177 1-516): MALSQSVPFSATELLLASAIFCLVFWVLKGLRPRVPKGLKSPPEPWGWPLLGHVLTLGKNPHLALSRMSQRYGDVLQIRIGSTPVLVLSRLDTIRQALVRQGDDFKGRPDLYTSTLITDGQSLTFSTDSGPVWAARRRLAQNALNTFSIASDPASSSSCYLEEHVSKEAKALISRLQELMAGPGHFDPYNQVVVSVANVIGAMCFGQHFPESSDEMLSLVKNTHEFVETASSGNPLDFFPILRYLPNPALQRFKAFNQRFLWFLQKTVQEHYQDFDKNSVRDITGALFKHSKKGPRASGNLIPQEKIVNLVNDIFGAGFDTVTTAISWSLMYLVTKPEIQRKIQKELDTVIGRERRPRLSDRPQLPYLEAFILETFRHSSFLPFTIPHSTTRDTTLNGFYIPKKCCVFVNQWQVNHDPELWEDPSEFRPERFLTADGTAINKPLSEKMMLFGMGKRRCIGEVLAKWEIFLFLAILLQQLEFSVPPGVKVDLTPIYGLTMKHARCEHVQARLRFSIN
Description: as §1, §2

CYP2C8 = test: Metabolic stability in HLMs with or without specific CYP inhibitor (quercetin); format: in vitro ADME, human; settings: HLMs 1 mg protein/mL, substrate 1 μM, quercetin 20 µM
Description: as §1, §2

CYP2D6 [6] = target: T4, CYP2D6 (Homo sapiens, UniProt P10635); test: Metabolic stability in recombinant human CYP isoenzymes; format: in vitro ADME; set-up: purchased Cypex Ltd. (Dundee, UK); settings: in 5 min
Description: as §3, §4

CYP2D6 [7] = target: T4, CYP2D6; test: Metabolic stability in HLMs with or without specific CYP inhibitor (quinidine); format: in vitro ADME; set-up: HLMs (1 mg protein·mL^-1); tissue BioIVT; host or cells: pooled human liver microsomes; settings: HLMs 1 mg protein/mL, substrate 1 μM, quinidine 20 µM
Description: as §1, §2

T2 sequence (P11712 whole entry): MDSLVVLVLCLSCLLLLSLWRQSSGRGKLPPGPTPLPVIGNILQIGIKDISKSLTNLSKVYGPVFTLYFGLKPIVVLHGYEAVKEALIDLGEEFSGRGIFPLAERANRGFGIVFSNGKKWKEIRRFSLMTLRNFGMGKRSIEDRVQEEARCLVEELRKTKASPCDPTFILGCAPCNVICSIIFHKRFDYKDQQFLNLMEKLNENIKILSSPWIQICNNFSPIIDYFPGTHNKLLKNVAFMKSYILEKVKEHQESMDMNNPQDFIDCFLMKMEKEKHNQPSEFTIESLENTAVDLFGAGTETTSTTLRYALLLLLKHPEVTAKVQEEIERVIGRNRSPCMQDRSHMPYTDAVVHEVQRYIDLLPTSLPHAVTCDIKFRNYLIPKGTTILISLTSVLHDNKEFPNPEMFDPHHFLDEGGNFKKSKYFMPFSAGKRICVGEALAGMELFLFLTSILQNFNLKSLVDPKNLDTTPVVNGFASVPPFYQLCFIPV
T4 sequence (P10635 whole entry): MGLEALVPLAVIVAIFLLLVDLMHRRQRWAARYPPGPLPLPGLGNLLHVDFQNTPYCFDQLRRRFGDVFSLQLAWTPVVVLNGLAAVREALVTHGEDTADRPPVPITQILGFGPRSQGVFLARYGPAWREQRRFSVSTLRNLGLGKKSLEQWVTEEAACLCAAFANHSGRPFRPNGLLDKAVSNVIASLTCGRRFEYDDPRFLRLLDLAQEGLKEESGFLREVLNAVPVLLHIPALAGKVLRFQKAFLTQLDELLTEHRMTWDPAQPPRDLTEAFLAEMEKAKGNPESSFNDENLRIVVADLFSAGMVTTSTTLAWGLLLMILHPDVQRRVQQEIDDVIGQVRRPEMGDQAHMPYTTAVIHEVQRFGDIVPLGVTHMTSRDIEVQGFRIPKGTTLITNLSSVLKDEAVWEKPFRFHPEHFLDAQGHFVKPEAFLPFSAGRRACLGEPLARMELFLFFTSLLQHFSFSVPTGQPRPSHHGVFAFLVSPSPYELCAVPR
T1 sequence (P08684 whole entry): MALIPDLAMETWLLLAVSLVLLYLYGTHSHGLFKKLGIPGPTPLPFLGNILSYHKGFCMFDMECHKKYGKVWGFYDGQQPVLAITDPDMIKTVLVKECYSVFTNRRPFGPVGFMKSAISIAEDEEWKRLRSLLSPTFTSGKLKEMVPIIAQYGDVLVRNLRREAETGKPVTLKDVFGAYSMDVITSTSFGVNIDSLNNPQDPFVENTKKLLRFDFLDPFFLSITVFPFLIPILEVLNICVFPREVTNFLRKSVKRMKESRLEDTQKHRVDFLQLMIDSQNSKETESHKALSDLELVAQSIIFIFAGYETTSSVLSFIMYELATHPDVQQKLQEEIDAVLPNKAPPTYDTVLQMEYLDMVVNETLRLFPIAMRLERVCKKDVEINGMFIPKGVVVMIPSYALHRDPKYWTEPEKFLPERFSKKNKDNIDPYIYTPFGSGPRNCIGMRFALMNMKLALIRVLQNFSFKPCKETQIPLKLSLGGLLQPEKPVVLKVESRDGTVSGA

Compound	Relative abundance of MS peak areas, Rat Feces 0-48 h [3] [%]	Relative abundance of MS peak areas, Rat Urine 0-48 h [3] [%]	Relative abundance of MS peak areas, Rat Plasma 0-24 h [3] [%]	Relative abundance of MS peak areas, Dog Plasma 0-48 h [4] [%]	Area ratio in rat urine, mean (%CV) [5]	UV (314 nm) Peak Areas Relative Abundance (monkey hepatocytes) [%]	UV (314 nm) Peak Areas Relative Abundance (dog hepatocytes)	UV (314 nm) Peak Areas Relative Abundance (rat hepatocytes)	UV (314 nm) Peak Areas Relative Abundance (mouse hepatocytes)	Relative abundance of MS peak areas, Rat Bile 0-48 h [3] [%]	UV (314 nm) Peak Areas Relative Abundance (human hepatocytes)	further results
Cc1ncc2n1-c1ccc(Cl)cc1C(c1ccccc1F)=NC2 [Midazolam, midazolam, reference compound]	–	–	–	–	–	–	–	–	–	–	–	Inhibition Rate (CYP3A4): 99.7%; CLint (rCYPj) (recombinant human CYP3A4): 1.93 µL/min/pmol
O=C(O)Cc1ccccc1Nc1c(Cl)cccc1Cl [Diclofenac, diclofenac, reference compound]	–	–	–	–	–	–	–	–	–	–	–	CLint (rCYPj) (CYP2C9 [1]): 3.53 µL/min/pmol; Inhibition Rate (CYP2C9 [2]): 98.2%
CSCC(O)C(=O)N1CC(n2c(=O)n(-c3ccc(C(F)(F)F)cc3)c3nccnc32)C1 (stereo not drawn) [M453]	1.57	17.25	0.05	3.58	0.23 (23)	–	–	–	–	–	–	Change of area ratio in rat urine on coadministration with AOAA [5]: reduced
O=C(C(O)CO)N1CC(n2c(=O)n(-c3ccc(C(F)(F)F)cc3)c3nccnc32)C1 (stereo not drawn) [M423 (BPI-460456)]	9.07	17.63	2.71	40.81	19.0 (57)	2.01	+	+	+	0.58	2.36%	Covalent binding to TEAD proteins (TEAD proteins): do not covalently bind; Activity: inhibition of TEAD palmitoylation (TEAD palmitoylation): inactive
CCOc1ccc(NC(C)=O)cc1 [Phenacetin, phenacetin, reference compound]	–	–	–	–	–	–	–	–	–	–	–	Inhibition Rate (CYP1A2): 79.2%
CC(=O)O[C@H]1C(=O)[C@@]2(C)[C@H]([C@H](OC(=O)c3ccccc3)[C@]3(O)C[C@H](OC(=O)[C@H](O)[C@@H](NC(=O)c4ccccc4)c4ccccc4)C(C)=C1C3(C)C)[C@]1(OC(C)=O)CO[C@@H]1C[C@@H]2O [Paclitaxel, reference compound]	–	–	–	–	–	–	–	–	–	–	–	Inhibition Rate (CYP2C8): 78.2%
COc1ccc2c(c1)[C@]13CCCC[C@@H]1[C@H](C2)N(C)CC3 [Dextromethorphan, reference compound]	–	–	–	–	–	–	–	–	–	–	–	Extent of metabolism in recombinant human CYP2D6 (CYP2D6 [6]): completely metabolized; Inhibition Rate (CYP2D6 [7]): 87.1%
CC(O)C(=O)N1CC(n2c(=O)n(-c3ccc(C(F)(F)F)cc3)c3nccnc32)C1 (stereo not drawn) [M407 (BPI-460430)]	5.94	1.02	16.39	6.23	–	3.61	+	2.75%	1.39%	0.72	+	Covalent binding to TEAD proteins (TEAD proteins): do not covalently bind; Activity: inhibition of TEAD palmitoylation (TEAD palmitoylation): inactive
NC(CSCC(F)C(=O)N1CC(n2c(=O)n(-c3ccc(C(F)(F)F)cc3)c3nccnc32)C1)C(=O)O (stereo not drawn) [M528]	1.61	0.69	1.53	7.65	0.12 (37)	3.01	22.65%	18.4%	24.76%	43.88	3.01%	Change of area ratio in rat urine on coadministration with AOAA [5]: reduced
